# From ChEMBL document CHEMBL4828703, “Structure-activity relationship study of THZ531 derivatives enables the discovery of BSJ-01-175 as a dual CDK12/13 covalent inhibitor with efficacy in Ewing sarcoma” (Eur J Med Chem, 2021)
# pIC50: −log10 of the molar value. Activity calls are given as the source filed them. The rule behind the calls is not given here.
# Assays:
# [1] = biological target: CDK12/Cyclin K (Homo sapiens, UniProt Q9NYV4); assay: Inhibition of human recombinant CDK12/CyclinK assessed as reduction in substrate phosphorylation using His-c-Myc as substrate preincubated with enzyme for 5 mins followed by substrate addition for 15 mins in presence of [gamma 32P-ATP] by radioactive kinase assay; format: protein-complex assay
# Sequence of CDK12/Cyclin K (O75909 whole entry): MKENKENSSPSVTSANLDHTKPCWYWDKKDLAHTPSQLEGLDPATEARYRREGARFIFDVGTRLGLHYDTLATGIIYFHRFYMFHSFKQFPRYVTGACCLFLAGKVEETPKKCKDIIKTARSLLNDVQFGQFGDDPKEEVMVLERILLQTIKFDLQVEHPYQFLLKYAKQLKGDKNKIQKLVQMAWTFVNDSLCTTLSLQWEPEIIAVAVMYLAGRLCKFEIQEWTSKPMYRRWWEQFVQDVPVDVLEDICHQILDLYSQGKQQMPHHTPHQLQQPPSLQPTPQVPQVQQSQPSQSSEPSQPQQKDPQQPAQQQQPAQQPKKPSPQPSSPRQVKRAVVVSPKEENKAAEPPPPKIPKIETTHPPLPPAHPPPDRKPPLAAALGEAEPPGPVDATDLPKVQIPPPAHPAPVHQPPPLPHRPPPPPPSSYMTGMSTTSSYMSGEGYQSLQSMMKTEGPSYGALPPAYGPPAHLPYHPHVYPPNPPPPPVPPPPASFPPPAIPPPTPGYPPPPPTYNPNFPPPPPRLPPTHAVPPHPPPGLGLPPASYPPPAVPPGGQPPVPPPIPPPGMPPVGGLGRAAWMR
# Sequence of CDK12/Cyclin K (Q9NYV4 whole entry): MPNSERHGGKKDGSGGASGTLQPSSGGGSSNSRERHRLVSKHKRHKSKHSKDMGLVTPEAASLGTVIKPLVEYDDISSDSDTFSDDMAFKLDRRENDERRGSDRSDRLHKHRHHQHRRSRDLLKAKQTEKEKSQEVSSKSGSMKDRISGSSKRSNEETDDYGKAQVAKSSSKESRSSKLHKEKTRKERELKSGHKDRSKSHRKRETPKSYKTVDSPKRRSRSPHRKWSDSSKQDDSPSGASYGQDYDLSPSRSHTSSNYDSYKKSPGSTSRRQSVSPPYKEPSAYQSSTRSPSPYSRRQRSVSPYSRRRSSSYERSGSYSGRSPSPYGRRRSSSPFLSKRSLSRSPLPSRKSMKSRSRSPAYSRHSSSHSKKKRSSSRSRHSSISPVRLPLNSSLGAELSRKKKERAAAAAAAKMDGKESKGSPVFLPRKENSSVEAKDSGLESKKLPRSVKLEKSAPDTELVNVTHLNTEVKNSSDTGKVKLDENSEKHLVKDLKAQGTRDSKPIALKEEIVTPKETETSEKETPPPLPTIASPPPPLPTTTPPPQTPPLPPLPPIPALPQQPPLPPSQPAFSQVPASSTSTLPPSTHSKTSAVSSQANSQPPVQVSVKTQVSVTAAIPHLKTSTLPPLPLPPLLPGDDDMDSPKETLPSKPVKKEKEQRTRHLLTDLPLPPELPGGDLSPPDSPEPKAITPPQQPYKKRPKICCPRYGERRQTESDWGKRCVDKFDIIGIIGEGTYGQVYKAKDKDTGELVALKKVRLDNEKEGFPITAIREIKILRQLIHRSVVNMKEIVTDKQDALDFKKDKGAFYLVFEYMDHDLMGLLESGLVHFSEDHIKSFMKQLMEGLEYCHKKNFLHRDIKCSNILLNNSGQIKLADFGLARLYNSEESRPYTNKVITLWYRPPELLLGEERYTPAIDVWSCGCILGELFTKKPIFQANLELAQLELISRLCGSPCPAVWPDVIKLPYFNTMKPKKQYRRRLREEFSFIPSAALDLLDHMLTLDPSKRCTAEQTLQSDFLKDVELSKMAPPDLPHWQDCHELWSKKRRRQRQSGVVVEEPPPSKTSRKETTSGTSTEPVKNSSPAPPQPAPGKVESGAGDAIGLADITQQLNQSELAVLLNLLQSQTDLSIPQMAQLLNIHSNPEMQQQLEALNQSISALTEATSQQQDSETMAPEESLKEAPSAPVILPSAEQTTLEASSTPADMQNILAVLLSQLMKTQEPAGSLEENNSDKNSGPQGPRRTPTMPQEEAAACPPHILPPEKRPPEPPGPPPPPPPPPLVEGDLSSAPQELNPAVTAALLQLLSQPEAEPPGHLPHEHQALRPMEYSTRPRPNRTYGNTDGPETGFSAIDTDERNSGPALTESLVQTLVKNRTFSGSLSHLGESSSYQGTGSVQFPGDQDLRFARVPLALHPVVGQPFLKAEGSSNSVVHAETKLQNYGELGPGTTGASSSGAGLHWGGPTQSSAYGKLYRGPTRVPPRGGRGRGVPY
# [2] = biological target: Cyclin-dependent kinase 13/Cyclin-K (Homo sapiens, UniProt Q14004); assay: Inhibition of human recombinant CDK13/CyclinK assessed as reduction in substrate phosphorylation using His-c-Myc as substrate preincubated with enzyme for 5 mins followed by substrate addition for 15 mins in presence of [gamma 32P-ATP] by radioactive kinase assay; format: protein-complex assay
# [3] = biological target: CDK2/Cyclin A2 (Homo sapiens, UniProt P24941); assay: Inhibition of CDK2/Cyclin A (unknown origin); format: protein-complex assay
# [4] = biological target: CDK9/cyclin T1 (Homo sapiens, UniProt P50750); assay: Inhibition of CDK9/Cyclin T1 (unknown origin); format: protein-complex assay
# Sequence of CDK9/cyclin T1 (O60563 whole entry): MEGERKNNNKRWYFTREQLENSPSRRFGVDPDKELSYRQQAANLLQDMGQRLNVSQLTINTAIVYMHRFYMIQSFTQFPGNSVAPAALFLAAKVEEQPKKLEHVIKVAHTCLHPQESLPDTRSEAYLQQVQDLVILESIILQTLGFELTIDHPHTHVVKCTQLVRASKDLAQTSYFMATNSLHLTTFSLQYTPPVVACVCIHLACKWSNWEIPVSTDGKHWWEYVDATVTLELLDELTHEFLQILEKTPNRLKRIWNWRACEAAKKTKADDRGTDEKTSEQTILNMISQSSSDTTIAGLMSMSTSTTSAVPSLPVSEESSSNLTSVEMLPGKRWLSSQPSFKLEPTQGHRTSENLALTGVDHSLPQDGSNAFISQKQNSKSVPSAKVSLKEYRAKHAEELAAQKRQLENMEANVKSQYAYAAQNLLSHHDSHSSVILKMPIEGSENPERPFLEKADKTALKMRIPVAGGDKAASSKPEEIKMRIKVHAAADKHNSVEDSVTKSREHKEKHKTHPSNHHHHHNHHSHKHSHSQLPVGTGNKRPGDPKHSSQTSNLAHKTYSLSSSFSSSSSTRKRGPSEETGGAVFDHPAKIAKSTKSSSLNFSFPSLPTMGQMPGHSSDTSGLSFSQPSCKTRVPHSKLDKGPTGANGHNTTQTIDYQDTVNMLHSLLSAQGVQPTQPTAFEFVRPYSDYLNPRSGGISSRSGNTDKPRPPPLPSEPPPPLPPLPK
# Sequence of CDK9/cyclin T1 (P50750 whole entry): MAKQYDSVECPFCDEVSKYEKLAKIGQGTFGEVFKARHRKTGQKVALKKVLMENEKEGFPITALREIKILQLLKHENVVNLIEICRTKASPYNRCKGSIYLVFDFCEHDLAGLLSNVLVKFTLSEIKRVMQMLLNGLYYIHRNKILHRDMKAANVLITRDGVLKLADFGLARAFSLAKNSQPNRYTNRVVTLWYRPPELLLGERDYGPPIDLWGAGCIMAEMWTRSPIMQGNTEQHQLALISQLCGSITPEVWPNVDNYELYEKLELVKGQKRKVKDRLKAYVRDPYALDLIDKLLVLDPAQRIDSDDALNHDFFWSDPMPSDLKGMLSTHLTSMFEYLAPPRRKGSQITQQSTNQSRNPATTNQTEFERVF
# [5] = biological target: Cyclin-dependent kinase 7/ cyclin H (Homo sapiens, UniProt P50613); assay: Inhibition of CDK7/Cyclin H (unknown origin); format: protein-complex assay
# Sequence of Cyclin-dependent kinase 7/ cyclin H (P51946 whole entry): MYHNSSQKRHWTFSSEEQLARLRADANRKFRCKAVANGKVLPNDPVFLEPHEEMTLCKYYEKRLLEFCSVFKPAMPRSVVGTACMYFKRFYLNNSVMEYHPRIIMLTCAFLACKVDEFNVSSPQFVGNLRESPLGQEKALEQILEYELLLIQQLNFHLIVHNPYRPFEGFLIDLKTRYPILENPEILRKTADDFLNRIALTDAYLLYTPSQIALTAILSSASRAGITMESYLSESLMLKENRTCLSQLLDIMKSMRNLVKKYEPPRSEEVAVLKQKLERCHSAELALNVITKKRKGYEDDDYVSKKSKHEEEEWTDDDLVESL
# Sequence of Cyclin-dependent kinase 7/ cyclin H (P50613 whole entry): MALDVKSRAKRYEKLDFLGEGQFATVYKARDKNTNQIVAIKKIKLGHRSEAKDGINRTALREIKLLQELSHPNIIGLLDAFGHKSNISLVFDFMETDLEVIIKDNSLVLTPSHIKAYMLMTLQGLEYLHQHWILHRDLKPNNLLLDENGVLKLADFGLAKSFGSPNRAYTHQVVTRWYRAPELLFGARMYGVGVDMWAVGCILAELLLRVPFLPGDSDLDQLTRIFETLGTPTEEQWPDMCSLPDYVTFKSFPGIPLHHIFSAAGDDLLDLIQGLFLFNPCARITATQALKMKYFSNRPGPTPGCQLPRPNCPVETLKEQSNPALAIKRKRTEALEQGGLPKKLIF
# [6] = Metabolic stability in mouse liver microsomes assessed as half life; format: ADME, Microsome
# [7] = Downregulation of RNA polymerase 2 CTD phosphorylation at Ser7 residue in human Jurkat cells at 1 uM incubated for 6 hrs by immunoblotting analysis; format: functional
# [8] = biological target: Cyclin-dependent kinase 12/13 (Homo sapiens) (UniProt Q14004+Q9NYV4); assay: Inhibition of CDK12/13 in human jurkat cells assessed as reduction in RNA polymerase 2 CTD phosphorylation at Ser2 residue at 1 uM measured after 6 hrs by immunoblotting analysis; format: cell-based
# [9] = Antiproliferative activity against human TC71 cells assessed as reduction in cell viability; format: functional, cell-based; conditions: TC-71
# [10] = Downregulation of RNA polymerase 2 CTD phosphorylation at Ser5 residue in human Jurkat cells at 1 uM incubated for 6 hrs by immunoblotting analysis; format: functional
# [11] = Downregulation of RNA polymerase 2 in human Jurkat cells at 1 uM measured after 6 hrs by immunoblotting analysis; format: functional
# [12] = biological target: Cyclin-dependent kinase 7 (Homo sapiens) (UniProt P50613); assay: Inhibition of THZ1-biotin binding from CDK7 in human Jurkat cells at 1 uM incubated for 6 hrs by CyclinH antibody based competitive pull down assay; format: cell-based
# Sequence of Cyclin-dependent kinase 7 (Homo sapiens) (P50613 whole entry): as above
# [13] = Antiproliferative activity against human Kelly cells harboring wild type CDK12 assessed as reduction in cell viability incubated for 72 hrs by CelTiter-Glo assay; format: functional, cell-based
# [14] = Antiproliferative activity against human Kelly cells harboring CDK12 C1039F mutant assessed as reduction in cell viability incubated for 72 hrs by CellTiter-Glo assay; format: functional, cell-based
pIC50 [1],pIC50 [2],pIC50 [3],pIC50 [4],pIC50 [5],SMILES,also measured
6.12,5.79,–,–,–,CN(C)C/C=C/C(=O)Nc1ccc(C(=O)N2CCC[C@@H](Nc3ncc(Cl)c(-c4c[nH]c5ccccc45)n3)C2)nc1,–
7.16,7.30,7.31,7.85,–,CN(C)C/C=C/C(=O)Nc1ccc(C(=O)N2CC[C@@H](Nc3ncc(Cl)c(-c4c[nH]c5ccccc45)n3)C2)cc1,–
7.45,6.73,–,–,–,CN(C)C/C=C/C(=O)Nc1ccc(N2CCC[C@@H](Nc3ncc(Cl)c(-c4c[nH]c5ccccc45)n3)C2)nc1,–
6.78,6.75,6.21,6.81,7.16,CN(C)C/C=C/C(=O)Nc1ccc(N2CCC[C@@H](Nc3ncc(Cl)c(-c4c[nH]c5ccccc45)n3)C2)cc1,–
6.64,6.10,–,–,–,C=CC(=O)Nc1ccc(C(=O)N2CCC[C@@H](Nc3ncc(Cl)c(-c4c[nH]c5ccccc45)n3)C2)nc1,t1/2 [6]: 3.5 min
5.84,5.74,6.47,5.91,6.41,CN(C)C/C=C/C(=O)Nc1ccc(C(=O)N2CCCC[C@@H](Nc3ncc(Cl)c(-c4c[nH]c5ccccc45)n3)C2)cc1,–
< 5.00,5.00,5.00,< 5.00,< 5.00,CN(C)C/C=C/C(=O)Nc1ccc(C(=O)N2CCC[C@@H](Nc3ncc(C(F)(F)F)c(-c4c[nH]c5ccccc45)n3)C2)cc1,–
5.00,< 5.00,< 5.00,< 5.00,6.20,CN(C)C/C=C/C(=O)Nc1ccc(C(=O)N2CCC[C@@H](Nc3ncc(C4CC4)c(-c4c[nH]c5ccccc45)n3)C2)cc1,–
–,–,–,–,–,Nc1ccc(OC2CCC[C@@H](Nc3ncc(Cl)c(-c4cn(S(=O)(=O)c5ccccc5)c5ccccc45)n3)C2)cc1 (stereo partly specified),t1/2 [6]: 5.4 min
6.07,6.31,–,–,–,CN(C)C/C=C/C(=O)Nc1ccc(O[C@@H]2CCC[C@@H](Nc3ncc(Cl)c(-c4c[nH]c5ccccc45)n3)C2)c(F)c1,–
6.65,6.24,6.00,6.74,6.94,CN(C)C/C=C/C(=O)Nc1ccc(C(=O)N2CCC[C@@H](Nc3ncc(Br)c(-c4c[nH]c5ccccc45)n3)C2)cc1,–

SMILES,pIC50 [1],pIC50 [2],pIC50 [3],pIC50 [4],pIC50 [5],also measured
CN(C)C/C=C/C(=O)Nc1ccc(O[C@H]2CCC[C@@H](Nc3ncc(Cl)c(-c4c[nH]c5ccccc45)n3)C2)cc1,6.74,6.74,6.19,6.88,6.95,–
CN(C)C/C=C/C(=O)Nc1ccc(C(=O)N2CCC[C@@H](Nc3ncc(Cl)c(-c4c[nH]c5ccccc45)n3)C2)cc1,6.32,6.18,5.89,6.71,–,inhibition at 1 µM [7]: 42%; inhibition [8]: 76%; pIC50 [9]: 7.18; inhibition at 1 µM [10]: 0%; inhibition at 1 µM [11]: 0%; inhibition [12]: Active; pIC50 [13]: 7.03; pIC50 [14]: 6.60
